# Laboratory results from US20110182982A1, “LIPOSOME TREATMENT OF VIRAL INFECTIONS” (University of Oxford, priority 2006, published 2011).
# Legend:
# Test in all cases: p24 secretion of HIV-1-infected PBMCs
# Format in all cases: cell-based
# Conditions in all cases: for % p24 secretion Week 1-rb / % p24 secretion Week 2-rb / % p24 secretion Week 3-rb / % p24 secretion Week 4-rb: treatment removed 2 weeks
# [1] = system: HIV-1 isolate: 89.6
# Procedure: (§1) Clearance of HIV-1 primary isolates from infected human cells by NB-DNJ was assessed using phytohemagglutinin (PHA)-activated peripheral blood mononuclear cells (PBMCs) as indicator cells and the determination of p24 antigen production as the end point.
# (§2) PBMCs from four normal (uninfected) donors were isolated, pooled, and stimulated with PHA (5 μg/ml) for 48 h followed by PHA plus interleukin-2 (40 U/ml) for 72 h in RPMI 1640 medium containing 10% heat-inactivated fetal bovine serum (FBS), 100 U of penicillin per ml, 100 μg of streptomycin per ml, and 2 mM L-glutamine. All experiments were performed in 96-well microtiter plates. To infect cells, 100 μl of PHA-activated PBMCs (5×10^5/ml) was added to each well, after which an equal volume containing 100 50% tissue culture infective doses (TCID50) of primary isolate stock was added. After an overnight incubation, the cells were washed three times with tissue culture medium, and finally re-suspended in medium containing the appropriate liposome treatment or free NB-DNJ. On day 7, approximately 10-30% of the culture volume containing secreted HIV-1 virions was used to infect naïve PBMCs for a second round of infection and treatment (volume transferred was calculated to be the volume necessary for the untreated control of that isolate to infect naïve cells at a TCID50=100). Rounds of treatment and infection of naïve cells were continued over four weeks, and at every time point cellular supernatant containing secreted virions was isolated and used in capture ELISAs to determine p24 concentration (measure of secretion). Additionally, supernatant isolated at each time point throughout treatment was used to infect naïve PBMCs (TCID50=100) for two weeks with no further treatment, which allowed for the observation of a rebound in viral activity.
# (§3) PBMCs infected with 8 primary isolates (listed in Table 3) were incubated in the presence of free NB-DNJ (concentrations ranging 0-1 mM) or liposome-encapsulated NB-DNJ (0-3.75 μM, final lipid concentration of 50 μM).
# [2] = system: HIV-1 isolate: UG92021
# Procedure: as §1, §2, §3
# [3] = system: HIV-1 isolate: UG92046
# Procedure: as §1, §2, §3
# [4] = system: HIV-1 isolate: HT92599
# Procedure: as §1, §2, §3
# [5] = 1 mM free in medium, first week
# [6] = Human immunodeficiency virus 1, PBMC, free, three rounds of treatment
compound,measurement,setting,value
"CCCCN1C[C@H](O)[C@@H](O)[C@H](O)[C@H]1CO [NB-DNJ, N-butyl-1,5-dideoxy-1,5-imino-D-glucitol]",reduction in viral secretion,[1]; [5],75%
same,IC50,[1]; [6],250 µM
same,IC90,[1]; [6],375 µM
same,% p24 secretion Week 1,[1]; NB-DNJ 250 uM,98%
same,% p24 secretion Week 2,[1]; NB-DNJ 250 uM,79%
same,% p24 secretion Week 3,[1]; NB-DNJ 250 uM,54%
same,% p24 secretion Week 4,[1]; NB-DNJ 250 uM,59%
same,% p24 secretion Week 1-rb,[1]; NB-DNJ 250 uM,81%
same,% p24 secretion Week 2-rb,[1]; NB-DNJ 250 uM,70%
same,% p24 secretion Week 3-rb,[1]; NB-DNJ 250 uM,73%
same,% p24 secretion Week 4-rb,[1]; NB-DNJ 250 uM,66%
same,% p24 secretion Week 1,[1]; NB-DNJ 500 uM,36%
same,% p24 secretion Week 2,[1]; NB-DNJ 500 uM,16%
same,% p24 secretion Week 3,[1]; NB-DNJ 500 uM,2%
same,% p24 secretion Week 4,[1]; NB-DNJ 500 uM,0%
same,% p24 secretion Week 1-rb,[1]; NB-DNJ 500 uM,35%
same,% p24 secretion Week 2-rb,[1]; NB-DNJ 500 uM,8%
same,% p24 secretion Week 3-rb,[1]; NB-DNJ 500 uM,0%
same,% p24 secretion Week 4-rb,[1]; NB-DNJ 500 uM,0%
same,% p24 secretion Week 1,[1]; NB-DNJ 1000 uM,25%
same,% p24 secretion Week 2,[1]; NB-DNJ 1000 uM,1%
same,% p24 secretion Week 3,[1]; NB-DNJ 1000 uM,1%
same,% p24 secretion Week 4,[1]; NB-DNJ 1000 uM,0%
same,% p24 secretion Week 1-rb,[1]; NB-DNJ 1000 uM,21%
same,% p24 secretion Week 2-rb,[1]; NB-DNJ 1000 uM,0%
same,% p24 secretion Week 3-rb,[1]; NB-DNJ 1000 uM,0%
same,% p24 secretion Week 4-rb,[1]; NB-DNJ 1000 uM,0%
same,% p24 secretion Week 1,[2]; NB-DNJ 250 uM,90%
same,% p24 secretion Week 2,[2]; NB-DNJ 250 uM,83%
same,% p24 secretion Week 3,[2]; NB-DNJ 250 uM,88%
same,% p24 secretion Week 4,[2]; NB-DNJ 250 uM,77%
same,% p24 secretion Week 1-rb,[2]; NB-DNJ 250 uM,110%
same,% p24 secretion Week 2-rb,[2]; NB-DNJ 250 uM,101%
same,% p24 secretion Week 3-rb,[2]; NB-DNJ 250 uM,91%
same,% p24 secretion Week 4-rb,[2]; NB-DNJ 250 uM,85%
same,% p24 secretion Week 1,[2]; NB-DNJ 500 uM,85%
same,% p24 secretion Week 2,[2]; NB-DNJ 500 uM,56%
same,% p24 secretion Week 3,[2]; NB-DNJ 500 uM,23%
same,% p24 secretion Week 4,[2]; NB-DNJ 500 uM,8%
same,% p24 secretion Week 1-rb,[2]; NB-DNJ 500 uM,98%
same,% p24 secretion Week 2-rb,[2]; NB-DNJ 500 uM,62%
same,% p24 secretion Week 3-rb,[2]; NB-DNJ 500 uM,27%
same,% p24 secretion Week 4-rb,[2]; NB-DNJ 500 uM,19%
same,% p24 secretion Week 1,[2]; NB-DNJ 1000 uM,61%
same,% p24 secretion Week 2,[2]; NB-DNJ 1000 uM,21%
same,% p24 secretion Week 3,[2]; NB-DNJ 1000 uM,5%
same,% p24 secretion Week 4,[2]; NB-DNJ 1000 uM,0%
same,% p24 secretion Week 1-rb,[2]; NB-DNJ 1000 uM,72%
same,% p24 secretion Week 2-rb,[2]; NB-DNJ 1000 uM,19%
same,% p24 secretion Week 3-rb,[2]; NB-DNJ 1000 uM,3%
same,% p24 secretion Week 4-rb,[2]; NB-DNJ 1000 uM,0%
same,% p24 secretion Week 1,[3]; NB-DNJ 250 uM,91%
same,% p24 secretion Week 2,[3]; NB-DNJ 250 uM,115%
same,% p24 secretion Week 3,[3]; NB-DNJ 250 uM,91%
same,% p24 secretion Week 4,[3]; NB-DNJ 250 uM,79%
same,% p24 secretion Week 1-rb,[3]; NB-DNJ 250 uM,99%
same,% p24 secretion Week 2-rb,[3]; NB-DNJ 250 uM,92%
same,% p24 secretion Week 3-rb,[3]; NB-DNJ 250 uM,94%
same,% p24 secretion Week 4-rb,[3]; NB-DNJ 250 uM,89%
same,% p24 secretion Week 1,[3]; NB-DNJ 500 uM,79%
same,% p24 secretion Week 2,[3]; NB-DNJ 500 uM,39%
same,% p24 secretion Week 3,[3]; NB-DNJ 500 uM,10%
same,% p24 secretion Week 4,[3]; NB-DNJ 500 uM,0%
same,% p24 secretion Week 1-rb,[3]; NB-DNJ 500 uM,75%
same,% p24 secretion Week 2-rb,[3]; NB-DNJ 500 uM,43%
same,% p24 secretion Week 3-rb,[3]; NB-DNJ 500 uM,15%
same,% p24 secretion Week 4-rb,[3]; NB-DNJ 500 uM,0%
same,% p24 secretion Week 1,[3]; NB-DNJ 1000 uM,64%
same,% p24 secretion Week 2,[3]; NB-DNJ 1000 uM,15%
same,% p24 secretion Week 3,[3]; NB-DNJ 1000 uM,3%
same,% p24 secretion Week 4,[3]; NB-DNJ 1000 uM,0%
same,% p24 secretion Week 1-rb,[3]; NB-DNJ 1000 uM,64%
same,% p24 secretion Week 2-rb,[3]; NB-DNJ 1000 uM,21%
same,% p24 secretion Week 3-rb,[3]; NB-DNJ 1000 uM,1%
same,% p24 secretion Week 4-rb,[3]; NB-DNJ 1000 uM,0%
same,reduction in viral secretion,[4]; [5],50%
same,% p24 secretion Week 1,[4]; NB-DNJ 250 uM,99%
same,% p24 secretion Week 2,[4]; NB-DNJ 250 uM,84%
same,% p24 secretion Week 3,[4]; NB-DNJ 250 uM,88%
same,% p24 secretion Week 4,[4]; NB-DNJ 250 uM,81%
same,% p24 secretion Week 1-rb,[4]; NB-DNJ 250 uM,93%
same,% p24 secretion Week 2-rb,[4]; NB-DNJ 250 uM,99%
same,% p24 secretion Week 3-rb,[4]; NB-DNJ 250 uM,95%
same,% p24 secretion Week 4-rb,[4]; NB-DNJ 250 uM,88%
same,% p24 secretion Week 1,[4]; NB-DNJ 500 uM,53%
same,% p24 secretion Week 2,[4]; NB-DNJ 500 uM,19%
same,% p24 secretion Week 3,[4]; NB-DNJ 500 uM,8%
same,% p24 secretion Week 4,[4]; NB-DNJ 500 uM,1%
same,% p24 secretion Week 1-rb,[4]; NB-DNJ 500 uM,67%
same,% p24 secretion Week 2-rb,[4]; NB-DNJ 500 uM,27%
same,% p24 secretion Week 3-rb,[4]; NB-DNJ 500 uM,17%
same,% p24 secretion Week 4-rb,[4]; NB-DNJ 500 uM,1%
same,% p24 secretion Week 1,[4]; NB-DNJ 1000 uM,55%
same,% p24 secretion Week 2,[4]; NB-DNJ 1000 uM,10%
same,% p24 secretion Week 3,[4]; NB-DNJ 1000 uM,3%
same,% p24 secretion Week 4,[4]; NB-DNJ 1000 uM,0%
same,% p24 secretion Week 1-rb,[4]; NB-DNJ 1000 uM,52%
same,% p24 secretion Week 2-rb,[4]; NB-DNJ 1000 uM,15%
same,% p24 secretion Week 3-rb,[4]; NB-DNJ 1000 uM,6%
same,% p24 secretion Week 4-rb,[4]; NB-DNJ 1000 uM,1%
